Source: patent US20240381872A1, “SUBSTITUTED 2,3-DIHYDRO[1,3]THIAZOLO[4,5-B]PYRIDINES, SALTS THEREOF AND THEIR USE AS HERBICIDALLY ACTIVE SUBSTANCES” (BAYER AKTIENGESELLSCHAFT, priority 2021, published 2024)

Tests used:
Assay type in all cases: in vivo
Veronica persica (VERPE) = assay: Herbicidal pre-emergence action, section C (Table C10); conditions: visual grading after ca. 3 weeks; for pest or weed control at 320 g/ha: Veronica persica, pre-emergence, 504 h, read-out: pre-emergence activity against VERPE in %
Description: Seeds of mono- and dicotyledonous weed plants and crop plants were sown, in plastic or organic planting pots, in sandy loam and covered with soil. The compounds according to the invention, formulated in the form of wettable powders (WP) or as emulsifiable concentrates (EC), were applied to the surface of the covering soil as aqueous suspension or emulsion, with the addition of 0.5% of an additive, at an application rate of 600 l of water/ha (converted). Following treatment, the pots were placed in a greenhouse and kept under optimum growth conditions for the test plants. The visual grading of the damage to the test plants was carried out after ca. 3 weeks in comparison to untreated controls (herbicidal effect in percent (%): 100% effect=plants have died off, 0% effect=as control plants).

Zea mays (ZEAMX) = assay: Pre-emergence effects on crop plants, section D (Table D1); conditions: visual grading after ca. 3 weeks
In short: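 Read-out: visual percent injury versus untreated controls at ca. 3 weeks (0% as control, 100% dead). Treatment: aqueous WP/EC suspension or emulsion with 0.5% additive, 600 l/ha, on soil covering seeds in sandy loam, at 320 g/ha or below, under optimum greenhouse conditions.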

[1] = test system: Echinochloa crus-galli (ECHCG); assay: Herbicidal post-emergence action, section E (Table E5); conditions: visual assessment ca. 3 weeks after spraying
Description: Seeds of mono- and dicotyledonous weed plants and crop plants were sown, in plastic or organic planting pots, in sandy loam, covered with soil and grown in a greenhouse under controlled growth conditions. 2 to 3 weeks after sowing, the test plants were sprayed in the single-leaf stage. The compounds according to the invention, formulated in form of wettable powders (WP) or as emulsifiable concentrates (EC), were sprayed onto the green plant parts as aqueous suspension or emulsion, with the addition of 0.5% of an additive, at an application rate of 600 l of water/ha (converted). The test plants were placed in the greenhouse for ca. 3 weeks under optimum growth conditions, and then the effect of the preparations was assessed visually in comparison with untreated controls (herbicidal effect in percent (%): 100% effect=plants have died off, 0% effect=as control plants).

[2] = test system: Triticum aestivum (TRZAS); assay: Post-emergence effects on crop plants, section F (Table F2); conditions: for post-emergence activity against TRZAS in %: crop plant damage
In short: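 Sandy loam, greenhouse, controlled conditions. Spray at single-leaf stage (2–3 wk post-sowing); WP/EC aqueous suspension/emulsion + 0.5% additive, 600 l water/ha; rate ≤320 g/ha. Visual scoring ca. 3 wk post-spray vs untreated, % effect.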

[3] = test system: Echinochloa crus-galli (ECHCG); assay: Herbicidal pre-emergence action, section A (Table A3); conditions: visual grading after ca. 3 weeks vs untreated controls; for pest or weed control at 320 g/ha: Echinochloa crus-galli, pre-emergence, 504 h, read-out: pre-emergence activity against ECHCG in %
In short: (§1)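 Sandy loam pots, seeds covered with soil, treated on the soil surface with aqueous WP or EC preparations containing 0.5% additive (600 l/ha). Visual damage rating after ca. 3 weeks in greenhouse; scale 0% (as control) to 100% (plants died off).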

Kochia scoparia (KCHSC) = assay: Herbicidal pre-emergence action, section A (Table A4); conditions: visual grading after ca. 3 weeks vs untreated controls
In short: as §1

Stellaria media (STEME) = assay: Herbicidal pre-emergence action, section A (Table A9)
In short: as §1

[4] = test system: Amaranthus retroflexus (AMARE); assay: Herbicidal pre-emergence action, section A (Table A11)
In short: as §1

[5] = test system: Abutilon theophrasti (ABUTH); assay: Herbicidal post-emergence action, section B (Table B1); conditions: rated visually after about 3 weeks; for post-emergence activity against ABUTH in %: application rate 320 g/ha; for pest or weed control at 1280 g/ha: Abutilon theophrasti, 504 h, application rate 1280 g/ha, read-out: post-emergence activity against ABUTH in %
In short: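 Under optimum greenhouse conditions, sandy-loam-grown weeds at the one-leaf stage are sprayed with aqueous suspension or emulsion carrying 0.5% additive, 600 liters per hectare. About 3 weeks later, visual percent activity is scored relative to untreated controls.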

[6] = Echinochloa crus-galli, 504 h, application rate 320 g/ha, read-out: post-emergence activity against ECHCG in %
[7] = Triticum aestivum, 504 h, application rate 80 g/ha, read-out: post-emergence activity against TRZAS in %
[8] = Bassia scoparia, pre-emergence, 504 h, application rate 1280 g/ha, read-out: pre-emergence activity against KCHSC in %
[9] = Stellaria media, 504 h, application rate 320 g/ha, read-out: pre-emergence activity against STEME in %
[10] = Amaranthus retroflexus, 504 h, application rate 320 g/ha, read-out: pre-emergence activity against AMARE in %

| SMILES | pest or weed control at 320 g/ha (Veronica persica (VERPE); application rate 320 g/ha) [%] | pre-emergence activity against ZEAMX in % (crop plant damage) (Zea mays (ZEAMX); application rate 80 g/ha) | pest or weed control at 320 g/ha [1, 6] [%] | percent crop plant damage (wheat, post-emergence) at 80 g/ha [2, 7] [%] | pest or weed control at 320 g/ha ([3]; application rate 320 g/ha) [%] | pre-emergence activity against ECHCG in % ([3]; application rate 320 g/ha) [%] | pre-emergence activity against KCHSC in % (Kochia scoparia (KCHSC); application rate 320 g/ha) [%] | pre-emergence activity against STEME in % (Stellaria media (STEME); application rate 320 g/ha) [%] | pre-emergence activity against AMARE in % ([4]; application rate 320 g/ha) [%] | post-emergence activity against ABUTH in % [5] [%] | post-emergence activity against ECHCG in % ([1]; application rate 320 g/ha) [%] | further results |
| --- | --- | --- | --- | --- | --- | --- | --- | --- | --- | --- | --- | --- |
| Cc1cc2c(nc1-c1ccccc1Cl)NCS2 [Example I-049, 5-(2-chlorophenyl)-6-methyl-2,3-dihydro[1,3]thiazolo[4,5-b]pyridine] | 80 | 10% | 80 | 10 |  |  |  |  |  |  |  |  |
| CCOCCS(=O)(=O)N1C[S+]([O-])c2cc(C)c(-c3ccccc3F)nc21 (stereo not shown) [Example I-127] | 90 | 20% | 90 | 0 | 100 |  |  |  |  |  |  | pest or weed control at 1280 g/ha (Kochia scoparia (KCHSC); [8]): 100%; pest or weed control at 320 g/ha (Stellaria media (STEME); [9]): 90%; pest or weed control at 320 g/ha [4, 10]: 90% |
| COCC1(C(=O)N2CSc3cc(C)c(-c4ccccc4F)nc32)CC(Cl)=NO1 (stereo not shown) [Example I-128] |  | 0% |  |  |  | 100 | 90 | 90 | 90 | 90 | 90 | pre-emergence activity against VERPE in % (Veronica persica (VERPE); application rate 80 g/ha): 80% |
| Cc1cc2c(nc1-c1cccc(F)c1F)NCS2 [Example I-029, 5-(2,3-difluorophenyl)-6-methyl-2,3-dihydro[1,3]thiazolo[4,5-b]pyridine] | 80 |  | 80 | 10 | 100 |  |  |  |  |  |  | pest or weed control at 320 g/ha (Kochia scoparia (KCHSC); Bassia scoparia, pre-emergence, 504 h, application rate 320 g/ha, read-out: pre-emergence activity against KCHSC in %): 100%; pest or weed control at 320 g/ha (Stellaria media (STEME); [9]): 90%; pest or weed control at 320 g/ha [4, 10]: 90%; pest or weed control at 1280 g/ha [5]: 90% |
| COC(=O)CCC(=O)N1CSc2cc(C)c(-c3ccccc3F)nc21 [Example I-010] |  |  |  |  |  | 100 |  | 100 |  | 90 | 90 | pre-emergence activity against KCHSC in % (Kochia scoparia (KCHSC); application rate 1280 g/ha): 100%; pre-emergence activity against AMARE in % ([4]; application rate 1280 g/ha): 100%; pre-emergence activity against VERPE in % (Veronica persica (VERPE); application rate 320 g/ha): 90% |
| Fc1ccccc1-c1nc2c(cc1Br)SCN2 [Example I-001, 6-bromo-5-(2-fluorophenyl)-2,3-dihydro[1,3]thiazolo[4,5-b]pyridine] | 80 | 10% | 90 | 0 |  |  |  |  |  |  |  |  |
| Cc1cc2c(nc1-c1ccccc1F)NCS2 [Example I-007, 5-(2-fluorophenyl)-6-methyl-2,3-dihydro[1,3]thiazolo[4,5-b]pyridine] | 80 |  |  |  | 100 |  |  |  |  |  |  | pest or weed control at 1280 g/ha (Kochia scoparia (KCHSC); [8]): 90%; pest or weed control at 1280 g/ha (Stellaria media (STEME); Stellaria media, 504 h, application rate 1280 g/ha, read-out: pre-emergence activity against STEME in %): 90%; pest or weed control at 1280 g/ha ([4]; Amaranthus retroflexus, 504 h, application rate 1280 g/ha, read-out: pre-emergence activity against AMARE in %): 90%; pest or weed control at 80 g/ha ([1]; Echinochloa crus-galli, 504 h, application rate 80 g/ha, read-out: post-emergence activity against ECHCG in %): 90% |
| Cc1cc2c(nc1-c1ccccc1F)N(C(=O)C13CCCC1C(Cl)=NO3)CS2 (stereo not shown) [Example I-104] |  | 0) % |  |  |  | 100 | 90 | 90 | 90 | 90 | 80 | post-emergence activity against TRZAS in % ([2]; application rate 80 g/ha): 0% |
| Cc1cc2c(nc1-c1cccc(C)c1F)NCS2 [Example I-113] |  |  |  |  |  |  | 90 |  | 90 |  | 80 | pre-emergence activity against ECHCG in % ([3]; application rate 1280 g/ha): 100%; pre-emergence activity against STEME in % (Stellaria media (STEME); application rate 1280 g/ha): 90%; pre-emergence activity against ZEAMX in % (crop plant damage) (Zea mays (ZEAMX); application rate 320 g/ha): 0%; post-emergence activity against TRZAS in % ([2]; application rate 320 g/ha): 20% |
| CC1(C(=O)N2CSc3cc(Br)c(-c4ccccc4Cl)nc32)CC(Cl)=NO1 (stereo not shown) [Example I-141, [6-bromo-5-(2-chlorophenyl)[1,3]thiazolo[4,5-b]pyridin-3(2H)-yl](3-chloro-5-methyl-4,5-dihydro-1,2-oxazol-5-yl)methanone] | 90 | 0% |  |  | 100 |  |  |  |  |  |  | pest or weed control at 1280 g/ha (Kochia scoparia (KCHSC); [8]): 100%; pest or weed control at 320 g/ha (Stellaria media (STEME); [9]): 90%; pest or weed control at 320 g/ha [4, 10]: 100%; pest or weed control at 1280 g/ha [5]: 90%; percent crop plant damage (wheat, post-emergence) at 320 g/ha ([2]; Triticum aestivum, 504 h, application rate 320 g/ha, read-out: post-emergence activity against TRZAS in %): 0% |
| COC(=O)CCC(=O)N1CSc2cc(Cl)c(-c3ccccc3F)nc21 [Example I-003] |  |  |  |  |  |  |  |  |  |  | 80 | pre-emergence activity against ECHCG in % ([3]; application rate 1280 g/ha): 100%; pre-emergence activity against KCHSC in % (Kochia scoparia (KCHSC); application rate 1280 g/ha): 100%; pre-emergence activity against STEME in % (Stellaria media (STEME); application rate 1280 g/ha): 90%; pre-emergence activity against AMARE in % ([4]; application rate 1280 g/ha): 90%; post-emergence activity against TRZAS in % ([2]; application rate 320 g/ha): 0% |
| Cc1cc2c(nc1-c1ccccc1F)N(C(=O)C1(C)CC(Cl)=NO1)CS2 (stereo not shown) [Example I-083] |  | 10% |  |  |  | 100 | 90 | 90 | 100 | 90 |  | pre-emergence activity against VERPE in % (Veronica persica (VERPE); application rate 80 g/ha): 80%; post-emergence activity against ECHCG in % ([1]; application rate 80 g/ha): 80% |
